Assay [1] deals with T1, mGPR39 (Mus musculus, UniProt Q5U431).
T1 construct: Full length human (AF034633), rat (DM091294) and mouse (BC085285) GPR39; expressed in transfected cells; host or cells: HEK293s (ATCC CRL-1573), pIRESneo3 vector, selected clones
T1 sequence (Q5U431 1-456): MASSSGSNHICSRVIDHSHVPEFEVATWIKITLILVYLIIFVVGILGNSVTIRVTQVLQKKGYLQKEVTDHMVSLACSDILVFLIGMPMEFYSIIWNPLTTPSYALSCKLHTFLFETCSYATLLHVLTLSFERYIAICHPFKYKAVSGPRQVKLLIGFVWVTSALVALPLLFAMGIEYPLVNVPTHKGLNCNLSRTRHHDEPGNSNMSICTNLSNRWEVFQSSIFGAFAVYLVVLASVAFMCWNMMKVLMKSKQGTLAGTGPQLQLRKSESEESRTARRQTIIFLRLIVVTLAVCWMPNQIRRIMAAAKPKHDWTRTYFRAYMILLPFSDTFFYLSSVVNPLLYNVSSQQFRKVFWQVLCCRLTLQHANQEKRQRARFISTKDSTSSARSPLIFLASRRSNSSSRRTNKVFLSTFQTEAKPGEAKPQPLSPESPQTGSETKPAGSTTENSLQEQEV
The experiment in a line: DMR label-free assay, HEK293s cells transfected with mouse GPR39. Type of assay: cell-based. Conditions: for Efficacy at 33 μM: AZ1395 100% reference. An excerpt: Full length human (AF034633), rat (DM091294) and mouse (BC085285) GPR39 (GeneArt–Life Technologies, Carlsbad, CA) were subcloned into the pIRESneo3 vector (Clontech, Mountain View, CA). The resulting expression vectors hGPR39-, rGPR39- and mGPR39-pIRESneo3 were transfected into HEK293s cells (ATCC CRL-1573) using Lipofectamine 2000 (Life Technologies). Individual clones were isolated using flow cytometry with a FACSVantage SE DIVA (Becton Dickinson, Franklin Lakes, NJ) and clones were chosen based on responses to Zn^2+ measured in a cAMP assay (see below). […] HEK293s-derived cell lines were cultured at 37°C, 10% CO2 and 95% humidity in DMEM supplemented with 10% FBS and 600 μg/ml Geneticin (Life Technologies). The mouse pancreas epithelial cell line NIT-1 (ATCC CRL-2055) with endogenous expression of GPR39 was cultured at 37°C, 5% CO2, and 95% humidity in Ham´s F12 (Life Technologies) supplemented with 10% FBS.
(§1) DMR assays were performed using an Epic instrument (Corning Inc., Corning, NY). 12,000 cells per well were cultured for 24 h in 384-well fibronectin-coated Epic biosensor plates (Corning). On the day of experiment, culture medium was removed and replaced with 30 μl buffer A (HBSS, HEPES 20 mM pH7.4, 1% DMSO, 0.01% BSA) using an EL406 (Bio-Tek). Plates were incubated at 26 °C for 1 h inside the Epic to allow for temperature equilibration. A baseline was read for 2 min, and then 15 μl compounds in buffer A were added using a CyBi-Well vario (CyBio) and DMR was detected during 45 min.
Concentration response data were fitted with a four parameter logistic fit using Eq 1, y=A+((B−A)/1+((C/x)^D))) (1) where A is no activation, B is full activation, C is the EC50 and D is the Hill slope.

For assay [2], the target named is T2, GPR39 (Homo sapiens, UniProt O43194).
T2 sequence (O43194 1-453): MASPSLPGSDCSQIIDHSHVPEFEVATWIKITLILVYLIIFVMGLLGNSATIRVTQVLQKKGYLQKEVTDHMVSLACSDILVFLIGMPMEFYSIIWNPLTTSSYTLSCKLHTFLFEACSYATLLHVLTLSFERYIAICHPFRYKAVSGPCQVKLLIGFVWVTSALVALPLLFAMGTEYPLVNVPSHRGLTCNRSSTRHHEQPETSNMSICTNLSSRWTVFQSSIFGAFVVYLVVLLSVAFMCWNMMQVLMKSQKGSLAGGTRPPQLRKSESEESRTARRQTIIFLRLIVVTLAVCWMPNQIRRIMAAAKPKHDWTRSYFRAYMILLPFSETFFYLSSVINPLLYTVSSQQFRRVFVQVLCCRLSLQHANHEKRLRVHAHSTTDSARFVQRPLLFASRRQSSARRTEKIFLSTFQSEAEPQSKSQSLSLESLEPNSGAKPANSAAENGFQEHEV
The experiment in a line: DMR positive allosteric modulator (PAM) experiments, compound and Zn^2+ interdependencies. Type of assay: cell-based. The arrangement: Full length human (AF034633), rat (DM091294) and mouse (BC085285) GPR39; expressed in transfected cells. The protocol:
as §1
Concentration response curves for the interaction between ortosteric and allosteric ligands in the DNR assay were globally fitted to the operational model of allosterism and agonism as described in Leach et al.. Binding data were fitted using one site or two site binding models.
Utilizing the DMR platform, positive allosteric modulator (PAM) experiments were performed in order to more accurately determine the influences of Zn^2+ on the three compounds, see Fig 4. Compound dose responses were generated at 10 different Zn^2+ concentrations, spanning 0 to 30 μM. The presence of Zn^2+ increased potencies of compounds up to 10000-fold. Data were initially globally fitted to the operational model of allosterism and agonism described by Leach et al. However, fits obtained were not of sufficient quality. We therefore decided to calculate modulation in a more simplistic way, here called PAM EC50 and defined as the concentration of modulator (Zn^2+) causing half maximum potentiation of agonist potency.

[3] abbreviates: absence (w/o) of Zn^2+, read-out: EC50.
Where [4] appears, read: presence of 5 μM Zn^2+, read-out: pEC50 ± SD (converted).

Where two headings read alike, the source gives them in different places.

The values below come from article PMC4697807, “Novel Zn^2+ Modulated GPR39 Receptor Agonists Do Not Drive Acute Insulin Secretion in Rodents” (PLoS ONE, 2015).

Broadly, the Emax is the greatest response seen or fitted, relative to the assay's reference.

`N#Cc1ccc(OCCn2ccnc2)c(OCCn2ccnc2)c1` [AZ1395, 3,4-bis-(2-imidazol-1-ylethoxy)-benzonitrile]: the EC50 in assay [1] (setting [3]) is 10000 nM; in assay [1] (absence (w/o) of Zn^2+, read-out: pEC50 ± SD (converted)), 10500 nM; in assay [1] (setting [4]) it was 166 nM; in assay [2] ([Zn2+] μM: 0), 3 µM; in assay [2] ([Zn2+] μM: 1e-7), 2.6 µM; in assay [2] ([Zn2+] μM: 5e-7), 2.4 µM. Also, the EC50 in assay [2] ([Zn2+] μM: 1e-6) is 1.7 µM; in assay [2] ([Zn2+] μM: 5e-6), 0.057 µM; in assay [2] ([Zn2+] μM: 7e-6), 0.015 µM; in assay [2] ([Zn2+] μM: 1e-5) it was 0.014 µM; in assay [2] ([Zn2+] μM: 2e-5), 0.0035 µM; in assay [2] ([Zn2+] μM: 3e-5) it was 0.0027 µM. For the same molecule, the EC50 in assay [2] ([Zn2+] μM: 3) turned out to be 0.16 µM. The Emax in assay [2] (in the absence of Zn^2+) was approximately 75%.

In the case of `Cc1nc2c(C(=O)O)cnn2c(O)c1Cc1ccc(Cl)cc1` [AZ4237, 6-[(4-chlorophenyl)methyl]-7-hydroxy-5-methyl-pyrazolo[1,5-a]pyrimidine-3-carboxylic acid], in assay [1] (absence (w/o) of Zn^2+), the “Efficacy at 33 μM” value is 12%. For the same molecule, the EC50 in assay [1] (setting [3]) was more than 33000 nM; in assay [1] (presence of 5 μM Zn^2+, read-out: EC50) it was 450 nM; in assay [1] (setting [4]) it was 457 nM; in assay [2] ([Zn2+] μM: 0), more than 33 µM; in assay [2] ([Zn2+] μM: 1e-7), more than 33 µM; in assay [2] ([Zn2+] μM: 5e-7) it was more than 33 µM. Also, the EC50 stood at 8.3 µM in assay [2] ([Zn2+] μM: 1e-6); 0.058 µM in assay [2] ([Zn2+] μM: 5e-6); 0.045 µM in assay [2] ([Zn2+] μM: 7e-6); 0.015 µM in assay [2] ([Zn2+] μM: 1e-5); 0.0074 µM in assay [2] ([Zn2+] μM: 2e-5); 0.003 µM in assay [2] ([Zn2+] μM: 3e-5). The EC50 in assay [2] ([Zn2+] μM: 3) came out at 0.58 µM.

For `Cc1nc(-c2nc3c(c(=O)[nH]2)CN(C(=O)c2cccc(Cl)c2F)CC3)cs1` [AZ7914, 6-(3-chloro-2-fluoro-benzoyl)-2-(2-methylthiazol-4-yl)-3,5,7,8-tetrahydropyrido-[4,3-d]pyrimidin-4-one], the “Efficacy at 33 μM” value in assay [1] (absence (w/o) of Zn^2+) is on record as 42%. Moreover, the EC50 in assay [1] (setting [3]) was more than 33000 nM; in assay [1] (setting [4]), 316 nM; in assay [2] ([Zn2+] μM: 0) it was more than 33 µM; in assay [2] ([Zn2+] μM: 1e-7), more than 33 µM; in assay [2] ([Zn2+] μM: 5e-7), more than 33 µM; in assay [2] ([Zn2+] μM: 1e-6), more than 33 µM. Also, the EC50 was 0.29 µM in assay [2] ([Zn2+] μM: 5e-6); 0.09 µM in assay [2] ([Zn2+] μM: 7e-6); 0.042 µM in assay [2] ([Zn2+] μM: 1e-5); 0.0095 µM in assay [2] ([Zn2+] μM: 2e-5); 0.0063 µM in assay [2] ([Zn2+] μM: 3e-5); 1.6 µM in assay [2] ([Zn2+] μM: 3).

For the molecule `[Zn+2]` [Zn^2+], in assay [2] (Zn^2+ alone), the “Emax for Zn^2+ alone, of Emax for Zn^2+ together with any of the GPR39 agonists” value is recorded as “approximately 35%”.
